# Reference: patent publication US11198869B2, “Angelman syndrome antisense treatment” (The Texas A&M University System, priority 2017, dated 2021)
# How the values were obtained:
# SNURF = assay: RNA-sequencing of Angelman syndrome iPSC neurons: SNURF; format: cell-based, human; conditions: 30 μM; six days post-treatment; RNA-seq
# Protocol: (§1) RNA was isolated using Qiagen RNAeasy Plus (74136, Qiagen, Hilden, Germany). RNA concentration was determined using Qubit Fluorometric Quantitation (Thermo Fisher Scientific) and RNA quality was assessed using a 4200 Agilent TapeStation (Agilent, Santa Clara, Calif.). RNA-sequencing libraries were generated using the Illumina TruSeq Stranded Total RNA kit (20020597, Illumina, Inc., San Diego, Calif.) according to the manufacturer's protocol. 75 base-pair paired-end sequencing was performed using a NextSeq 500 (IIlumina, San Diego, Calif.) at the Texas A&M Institute for Genome Sciences and Society Genomics core. Raw sequencing reads were processed using CASAVA. The resulting FASTQ sequences were examined using FASTQC. […]
# (§2) To determine whether ASO-4.4.PS.L and ASO-6.1.PO-1.O affect the levels of RNA transcripts encoded by the PWS polycistronic transcript, RNA-sequencing was performed on AS iPS cells treated with each ASO and the steady state RNA levels of SNURF, SNRPN, the SNORD116 host-gene transcript (SNHG116), the SNORD116 snoRNAs, IPW, the SNORD115 host-gene transcript (SNHG115), the SNORD115 snoRNAs, and UBE3A-AS were quantified. UBE3A steady state RNA levels were also measured. […]
# SNORD116 snoRNAs = assay: RNA-sequencing of Angelman syndrome iPSC neurons: SNORD116 snoRNAs; format: cell-based, human; conditions: 30 μM; six days post-treatment; RNA-seq
# Protocol: as §1, §2
Substance,"Difference, SNURF RNA level relative to vehicle (SNURF)","Difference, SNORD116 RNA level relative to vehicle (SNORD116 snoRNAs)"
"A^L*G^L*A^L*a*t*g*g*c*a*c*a*t*c*t*5mC^L*T^L*T^L*G^L (NNNATGGCACATCTNNNN; LNA gapmer, PS, 5-methylcytosine, chemistry not fully specified) [ASO-4.4.PS.L]",0.49,0.27
C^O*U^O*G^O*G^O-t*g*t*c*a*a*c*a*a*g-C^O*C^O*A^O*A^o [ASO-6.1.PO-1.O],−0.53,−0.04
